Assay results from ChEMBL document CHEMBL1201862, “PubChem BioAssay data set” (2004).
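Method: 48-hour compound exposure of cells in 96-well plates, five concentrations, linear interpolation of endpoints. At the GI50, growth is halved.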 The source made the active and inactive calls. Rule as the data show it: active = GI50 up to about 1.1 µM and inactive = higher.

Experiments:
Assay in all cases: NCI tumour cell line growth inhibition, 48 h
[1] = test system: SF-268
[2] = test system: M14
[3] = test system: EKVX
[4] = test system: HOP-62
[5] = test system: CAKI-1
[6] = test system: NCI-H522
[7] = test system: SN12C
[8] = test system: OVCAR-3
[9] = test system: OVCAR-5
[10] = test system: NCI-H23
[11] = test system: RPMI-8226
[12] = test system: MOLT-4
[13] = test system: LOX IMVI
[14] = test system: U-251
[15] = test system: SK-MEL-2
[16] = test system: RXF 393
[17] = test system: OVCAR-4
[18] = test system: IGROV-1
[19] = test system: MCF7
[20] = test system: NCI/ADR-RES

Structure (SMILES) | GI50 [1] | GI50 [2] | GI50 [3] | GI50 [4] | GI50 [5] | GI50 [6] | GI50 [7] | GI50 [8] | GI50 [9] | GI50 [10] | GI50 [11] | GI50 [12] | GI50 [13] | GI50 [14] | GI50 [15] | GI50 [16] | GI50 [17] | GI50 [18] | GI50 [19] | GI50 [20]
NC(S)=Nc1cc(Cl)ccc1Cl | > 100 µM (inactive) | > 100 µM (inactive) | > 100 µM (inactive) | > 100 µM (inactive) | > 100 µM (inactive) | > 100 µM (inactive) | > 100 µM (inactive) | > 100 µM (inactive) | > 100 µM (inactive) | > 100 µM (inactive) | > 100 µM (inactive) | > 100 µM (inactive) | > 100 µM (inactive) | > 100 µM (inactive) | > 100 µM (inactive) | 94 µM (inactive) | > 100 µM (inactive) | > 100 µM (inactive) | – | –
c1nc2nc[nH]c(SSc3[nH]cnc4ncnc3-4)c-2n1 | 0.897 µM (active) | 1.21 µM (inactive) | 88.3 µM (inactive) | 0.116 µM (active) | – | – | 12.8 µM (inactive) | < 0.0442 µM (active) | 4.4 µM (inactive) | 0.292 µM (active) | – | – | < 0.0441 µM (active) | 5.68 µM (inactive) | 8.22 µM (inactive) | > 100 µM (inactive) | – | > 22.3 µM (inactive) | 0.136 µM (active) | 0.217 µM (active)
Cc1ccc(C(=O)C2CC3(CCC2(O)c2ccc(C)cc2)CC(=O)Nc2ccccc2C3=O)cc1 (stereo not given) | > 100 µM (inactive) | 46.5 µM (inactive) | > 100 µM (inactive) | 99.3 µM (inactive) | > 100 µM (inactive) | – | > 100 µM (inactive) | > 100 µM (inactive) | > 100 µM (inactive) | > 100 µM (inactive) | – | 4.91 µM (inactive) | > 100 µM (inactive) | 8.39 µM (inactive) | > 100 µM (inactive) | 16.1 µM (inactive) | – | > 100 µM (inactive) | 7.6 µM (inactive) | > 100 µM (inactive)
CC1CN=C(Nc2cccc(C(F)(F)F)c2)S1 (stereo not given) | 44 µM (inactive) | > 100 µM (inactive) | 34.1 µM (inactive) | 95.3 µM (inactive) | – | 42.4 µM (inactive) | – | 51.5 µM (inactive) | > 100 µM (inactive) | 36.1 µM (inactive) | 23.4 µM (inactive) | 25.4 µM (inactive) | 43.5 µM (inactive) | 54.7 µM (inactive) | 77.6 µM (inactive) | 42.9 µM (inactive) | – | – | 44.7 µM (inactive) | –
CC(C)(C)[Si](OC1CC(n2cnc3c(N)ncnc32)OC1CO)(c1ccccc1)c1ccccc1 (stereo not given) | 16.1 µM (inactive) | 34.6 µM (inactive) | 18.4 µM (inactive) | 22.5 µM (inactive) | – | 16 µM (inactive) | 20.9 µM (inactive) | 16.6 µM (inactive) | 18.6 µM (inactive) | 13.9 µM (inactive) | 14.1 µM (inactive) | 20.7 µM (inactive) | 17.7 µM (inactive) | 17.1 µM (inactive) | 18.8 µM (inactive) | 13.4 µM (inactive) | 15 µM (inactive) | 20.8 µM (inactive) | – | –
COc1ccc(-c2cc(-c3ccccc3)c(C#N)c(=O)n2C2OC(CO)C(O)C(O)C2O)cc1 (stereo not given) | > 100 µM (inactive) | > 100 µM (inactive) | > 100 µM (inactive) | > 100 µM (inactive) | – | > 100 µM (inactive) | > 100 µM (inactive) | > 100 µM (inactive) | > 100 µM (inactive) | > 100 µM (inactive) | > 100 µM (inactive) | > 100 µM (inactive) | > 100 µM (inactive) | > 100 µM (inactive) | – | > 100 µM (inactive) | > 100 µM (inactive) | > 100 µM (inactive) | – | –
COc1ccc(N2C(=O)CSC2c2c[nH]c3ccccc23)cc1 (stereo not given) | > 100 µM (inactive) | > 100 µM (inactive) | > 100 µM (inactive) | > 100 µM (inactive) | – | 24.5 µM (inactive) | > 100 µM (inactive) | > 100 µM (inactive) | > 100 µM (inactive) | 69.7 µM (inactive) | – | 33 µM (inactive) | 78.9 µM (inactive) | 88.7 µM (inactive) | – | > 100 µM (inactive) | > 100 µM (inactive) | > 100 µM (inactive) | 70.1 µM (inactive) | –
S=C(N/N=C(/c1ccccc1)c1ccccn1)Nc1cccc(Cl)c1 | 0.462 µM (active) | 0.0596 µM (active) | 0.0513 µM (active) | 1.27 µM (inactive) | 0.701 µM (active) | – | 0.394 µM (active) | – | 0.984 µM (active) | 1.04 µM (active) | < 0.0385 µM (active) | < 0.0297 µM (active) | – | 0.169 µM (active) | 0.839 µM (active) | 1.08 µM (active) | 0.0524 µM (active) | – | 0.091 µM (active) | 0.0432 µM (active)
Cc1[nH]c(=O)nc(S)c1C(=O)NC1C2CCCCC2NC2CCCCC21 (stereo not given) | – | 14.2 µM (inactive) | – | 17.3 µM (inactive) | 17.2 µM (inactive) | – | 19.8 µM (inactive) | 16 µM (inactive) | 18.4 µM (inactive) | 14.4 µM (inactive) | 26.4 µM (inactive) | 14.3 µM (inactive) | 27 µM (inactive) | 13.9 µM (inactive) | 17.4 µM (inactive) | 13.5 µM (inactive) | 18.3 µM (inactive) | 15.7 µM (inactive) | 17 µM (inactive) | 17.7 µM (inactive)
CCOC(=O)[C@H]1Nc2c(cccc2[N+](=O)[O-])[C@H]2OCC[C@@H]12 | > 100 µM (inactive) | > 100 µM (inactive) | > 100 µM (inactive) | > 100 µM (inactive) | > 100 µM (inactive) | > 100 µM (inactive) | > 100 µM (inactive) | > 100 µM (inactive) | > 100 µM (inactive) | > 100 µM (inactive) | > 100 µM (inactive) | > 100 µM (inactive) | > 100 µM (inactive) | > 100 µM (inactive) | > 100 µM (inactive) | > 100 µM (inactive) | > 100 µM (inactive) | > 100 µM (inactive) | – | –
CN1C(=O)[C@@H]2[C@@H]3c4ccccc4N[C@@H]3c3[nH]c4ccccc4c3[C@@H]2C1=O | 32.6 µM (inactive) | – | 27.1 µM (inactive) | 19.5 µM (inactive) | 33.2 µM (inactive) | – | 29.5 µM (inactive) | 16.6 µM (inactive) | 20.1 µM (inactive) | 13.9 µM (inactive) | 18.7 µM (inactive) | 19.1 µM (inactive) | 20.6 µM (inactive) | 23.8 µM (inactive) | 17.3 µM (inactive) | 25 µM (inactive) | 16.9 µM (inactive) | 0.0502 µM (active) | 22.4 µM (inactive) | 22.8 µM (inactive)
CCSc1nc(N)c2c(-c3ccccc3)c3c(nc2n1)CCC3 | > 100 µM (inactive) | > 100 µM (inactive) | > 100 µM (inactive) | > 100 µM (inactive) | > 100 µM (inactive) | – | > 100 µM (inactive) | > 100 µM (inactive) | 9.91 µM (inactive) | > 100 µM (inactive) | > 100 µM (inactive) | > 100 µM (inactive) | > 100 µM (inactive) | > 100 µM (inactive) | – | > 100 µM (inactive) | > 100 µM (inactive) | > 100 µM (inactive) | > 100 µM (inactive) | > 100 µM (inactive)
CN(C)c1ccc(C2ON=C(c3ccccc3)N2C23CC4CC(CC(C4)C2)C3)cc1 (stereo not given) | > 10 µM (inactive) | > 10 µM (inactive) | > 10 µM (inactive) | > 10 µM (inactive) | > 10 µM (inactive) | > 10 µM (inactive) | > 10 µM (inactive) | > 10 µM (inactive) | > 10 µM (inactive) | > 10 µM (inactive) | > 10 µM (inactive) | 5.87 µM (inactive) | > 10 µM (inactive) | > 10 µM (inactive) | > 10 µM (inactive) | > 10 µM (inactive) | > 10 µM (inactive) | > 10 µM (inactive) | – | > 10 µM (inactive)
COc1ccc(-c2c(C#N)c(N)nc3c2CCS(=O)(=O)c2ccccc2-3)cc1 | > 100 µM (inactive) | – | – | – | > 100 µM (inactive) | > 100 µM (inactive) | > 100 µM (inactive) | – | – | > 100 µM (inactive) | – | – | > 100 µM (inactive) | > 100 µM (inactive) | > 100 µM (inactive) | – | > 100 µM (inactive) | > 100 µM (inactive) | – | > 100 µM (inactive)
O=C(N/N=C\C(F)(F)F)c1ccncc1 | – | 26 µM (inactive) | – | 24.7 µM (inactive) | 42.8 µM (inactive) | – | 92.3 µM (inactive) | 22.3 µM (inactive) | > 100 µM (inactive) | 8.36 µM (inactive) | > 100 µM (inactive) | 21.4 µM (inactive) | > 100 µM (inactive) | 26.9 µM (inactive) | > 100 µM (inactive) | 13.9 µM (inactive) | > 100 µM (inactive) | 35.2 µM (inactive) | 86.3 µM (inactive) | > 100 µM (inactive)
CCN(CC)c1ccc2cc(C(=O)Nc3ccc4[nH]c(C(=O)N5C[C@@H](CCl)c6c5cc(OC(=O)Nc5ccccc5)c5[nH]cc(C)c65)cc4c3)oc2c1 [CARZELESIN] | 0.00021 µM (active) | – | 0.000266 µM (active) | 0.000171 µM (active) | 5.28e-05 µM (active) | 0.000708 µM (active) | 552 µM (inactive) | 245 µM (inactive) | 0.000601 µM (active) | 0.000311 µM (active) | 0.000308 µM (active) | 0.000343 µM (active) | 0.000128 µM (active) | – | 0.000601 µM (active) | 0.000201 µM (active) | 0.000426 µM (active) | 0.000506 µM (active) | 9.25e-05 µM (active) | –
